ChEMBL document CHEMBL3044871, “Importance of some classes of molecular descriptors on classification of antitumor acridinones using factor analysis” (2012)

What follows are molecules tested on P388 (assay: Antitumor activity against Mus musculus (mouse) P388 cells xenografted in Mus musculus (mouse) assessed as increase in life span at 25 mg/kg relative to control).
Type: functional
CN(C)CCNc1ccc2nnn3c4ccc(O)cc4c(=O)c1c23 was tested, and the Activity was 102%.
CN(C)CCCNc1ccc2nnn3c4ccc(O)cc4c(=O)c1c23 was tested, and the Activity was 165%.
Molecule CN(C)CCN(C)c1ccc2nnn3c4ccc(O)cc4c(=O)c1c23 has an Activity of 10%.

The molecules below were run on P388 (assay: Antitumor activity against Mus musculus (mouse) P388 cells xenografted in Mus musculus (mouse) assessed as increase in life span at 100 mg/kg relative to control).
Type: functional
With Cc1ccc2c(c1)c(=O)c1c(NCCCN(C)C)ccc3nnn2c31 the Activity was 18%.
CN(C)CCNc1ccc2nnn3c4ccccc4c(=O)c1c23 gave an Activity of 77%.

What follows are molecules tested on P388 (assay: Antitumor activity against Mus musculus (mouse) P388 cells xenografted in Mus musculus (mouse) assessed as increase in life span relative to control).
Type: functional
Design: concentration or dose not given beside the values
With CCN(CC)CCNc1ccc2nc(C)n3c4ccc(O)cc4c(=O)c1c23 the Activity was 185%.
In the case of CN(C)CCCNc1ccc2ncn3c4ccccc4c(=O)c1c23, the Activity is reported as 25%.
Molecule CCN(CC)CCCCCNc1ccc2ncn3c4ccc(C)cc4c(=O)c1c23 has an Activity of 20%.
Molecule CCN(CC)CCNc1ccc2ncn3c4ccc(C(C)(C)C)cc4c(=O)c1c23 has an Activity of 0%.
CN(C)CCNc1ccc2ncn3c4ccc(O)cc4c(=O)c1c23 was tested, and the Activity was 110%.
For CN(C)CCNc1ccc2ncn3c4ccccc4c(=O)c1c23, the Activity was 90%.
CCNCCNc1ccc2nnn3c4ccc(O)cc4c(=O)c1c23 showed an Activity of 78%.
Work on CCN(CC)CCNc1ccc2ncn3c4ccc(O)cc4c(=O)c1c23 [C-1311] yielded an Activity of 93%.
Molecule CN(C)CCCCCNc1ccc2ncn3c4ccc(O)cc4c(=O)c1c23 has an Activity of 85%.
In the case of CN(C)CCCNc1ccc2ncn3c4ccc(O)cc4c(=O)c1c23, the Activity is reported as 120%.
CCN(CC)CCNc1ccc2ncn3c4ccc(OC)cc4c(=O)c1c23 was tested, and the Activity was 96%.
Molecule CCN(CC)CCNc1ccc2ncn3c4cc(O)ccc4c(=O)c1c23 has an Activity of 27%.
With CCN(CC)CCNc1ccc2ncn3c4ccccc4c(=O)c1c23 the Activity was 55%.
CN(C)CCNc1ccc2nnn3c4ccc(C(C)(C)C)cc4c(=O)c1c23 gave an Activity of 0%.
For CN(C)CCCCCNc1ccc2ncn3c4ccccc4c(=O)c1c23, the Activity was 10%.
